Experiment: gradient 5% acetonitrile 3 min, to 50% in 2 min, to 85% in 15 min, held 3 min, 100 µL/min
Conditions: column: Zorbax Extend-C18 2.1 x 50 mm; eluents: water / acetonitrile, 0.1% formic acid
How it was run: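 Data were gathered over 3 months by HPLC coupled to a quadrupole time-of-flight mass spectrometer, operated in positive and negative ionization mode. Mixtures of ~100 pure standards ran on a Zorbax Extend-C18 column (2.1 × 50 mm, 1.8 μm) at 100 μL/min, with water and acetonitrile each containing 0.1% formic acid and dead and dwell volumes of 40 μL and 900 μL. Retention time was read from adduct peaks picked by computer and checked manually.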

Q: With O=C(NCC1CCCO1)c1ncoc1-c1ccccc1C(=O)N1CCCCC1 (stereo not drawn) as the compound, how does the RP-LC retention time read?
A: 692 s

Q: Which RP-LC retention time does the source give for Fc1ccc(Nc2nc(NCC3CCCO3)nc3c2cnn3-c2ccccc2)cc1 (stereo not drawn) here?
A: 1050 s

Q: For CCCn1c(CCc2ccccc2NS(=O)(=O)c2ccc3c(c2)OCCO3)nc2ccccc21, which RP-LC retention time is on record?
A: 763 s

Q: For O=C(c1ccc2snnc2c1)N1CCN(c2ccccn2)CC1, which RP-LC retention time is on record?
A: 576 s

Q: With COc1ccc2c(c1)C1(CCN(C(=O)C(C)C)C1)C(=O)N2 (stereo not drawn) as the compound, how does the RP-LC retention time read?
A: 646 s

Q: Which RP-LC retention time does the source give for O=C(Cn1cccc1-c1nnc(-c2ccccc2)o1)N1CCN(c2ccccc2F)CC1 here?
A: 996 s

Q: With CCOc1cccc(-c2noc(Cn3ccn(-c4ccccc4C)c(=O)c3=O)n2)c1 as the compound, how does the RP-LC retention time read?
A: 911 s

Q: For CCCCc1nnc(NC(=O)C2CC(=O)N(CCc3c[nH]c4ccc(C)cc34)C2)s1 (stereo not drawn), which RP-LC retention time is on record?
A: 802 s

Q: Which RP-LC retention time does the source give for CCOC(=O)c1cccc(Nc2c(-c3ccc(SC)cc3)nc3cnccn23)c1 here?
A: 950 s

Q: With CCn1ccc(C(=O)N2CC(n3cc(COC)nn3)C2)n1 as the compound, how does the RP-LC retention time read?
A: 605 s

Q: For O=C(Cn1nc(-c2ccccc2)c2cc(Cl)ccc21)N1CCN(c2ccccn2)CC1, which RP-LC retention time is on record?
A: 757 s

Q: With CC1CC(=O)Nc2cc(S(=O)(=O)N3CCN(c4ncccn4)CC3)ccc2S1 (stereo not drawn) as the compound, how does the RP-LC retention time read?
A: 803 s

Q: Which RP-LC retention time does the source give for COc1ccc(N2CCN(CCNC(=O)CCSc3ccccc3)CC2)cc1 here?
A: 606 s

Q: With CC(=O)Nc1onc(C)c1-c1ccc(C)c(S(=O)(=O)NCc2ccc(Br)cc2)c1 as the compound, how does the RP-LC retention time read?
A: 870 s

Q: Which RP-LC retention time does the source give for Cc1ccccc1CNC(=O)C1(C)CCCN(C(=O)Nc2ccc(Cl)cc2)C1 (stereo not drawn) here?
A: 995 s

Q: Which RP-LC retention time does the source give for O=C(NCc1ccc(F)c(Cl)c1)C1CCN(c2nnc3ccccn23)CC1 here?
A: 686 s

Q: Which RP-LC retention time does the source give for Cc1cc2nn(CC(=O)N(C)c3ccccc3)c(=O)n2c(Nc2ccc(F)cc2)n1 here?
A: 1010 s

Q: Which RP-LC retention time does the source give for C#CC1(N2CCCCC2)CCCCC1 here?
A: 638 s

Q: Which RP-LC retention time does the source give for O=S(=O)(Cc1ccccc1F)N1CCC(c2noc(-c3cccnc3)n2)C1 (stereo not drawn) here?
A: 826 s

Q: Which RP-LC retention time does the source give for O=C(c1ccnnc1)N1C[C@@H](COCC2CC2)[C@H](c2ccncc2)C1 here?
A: 570 s

Q: For O=C(Nc1ccccc1)C1(CCO)CC12CCOCC2 (stereo not drawn), which RP-LC retention time is on record?
A: 639 s

Q: Which RP-LC retention time does the source give for O=C(Nc1ccc(Cl)cc1F)N1CCC(N2CC(F)(F)C[C@H]2COCC2CC2)CC1 here?
A: 741 s

Q: With Cn1c(N2CCCC(C(=O)NCC3CCN(Cc4ccccc4F)CC3)C2)cc(=O)n(C)c1=O (stereo not drawn) as the compound, how does the RP-LC retention time read?
A: 579 s

Q: With Cc1nc(-c2noc(-c3cccnc3)n2)cn1CC(=O)NC(C)c1ccccc1 (stereo not drawn) as the compound, how does the RP-LC retention time read?
A: 684 s

Q: Which RP-LC retention time does the source give for CCOC(=O)C1=C(C)NC2=C(C(=O)C(C(=O)OC)C(C)C2)C1c1ccc(N(C)C)cc1 (stereo not drawn) here?
A: 631 s

Q: With CCn1cnnc1C1CCN(C(=O)c2ccc3c(c2)OCO3)CC1 as the compound, how does the RP-LC retention time read?
A: 534 s

Q: With O=C(NC1CCCCCC1)C1CCN(S(=O)(=O)c2cc(C(=O)N3CCCC3)cs2)CC1 as the compound, how does the RP-LC retention time read?
A: 820 s

Q: With Cc1ccc(NC(=O)N2CCC(n3c(C(F)(F)F)nc4cccnc43)CC2)cc1 as the compound, how does the RP-LC retention time read?
A: 856 s

Q: Which RP-LC retention time does the source give for COc1cc(NC(=O)CN2CCN(c3ccccn3)CC2)cc(OC)c1 here?
A: 587 s

Q: For CCn1cnc(S(=O)(=O)N2CCC(C(=O)NCCc3ccccc3)CC2)c1, which RP-LC retention time is on record?
A: 697 s

Q: With CCc1nc2cc(-c3noc(Cc4ccccc4F)n3)ccc2o1 as the compound, how does the RP-LC retention time read?
A: 1050 s

Q: For Cc1ccc(-c2cc3c(N4CCCC(C(=O)NCC5CC5)C4)nccn3n2)c(C)c1 (stereo not drawn), which RP-LC retention time is on record?
A: 863 s

Q: With Cc1cnc(CC2CCN(C(=O)N(C)C)C2)n1Cc1ccccc1 (stereo not drawn) as the compound, how does the RP-LC retention time read?
A: 609 s

Q: Which RP-LC retention time does the source give for Cc1ccccc1NC(=O)N1C[C@@H]2CN(S(=O)(=O)c3ccc(F)cc3)C[C@H](C1)O2 here?
A: 786 s

Q: Which RP-LC retention time does the source give for Cc1ccc(-c2nc(-n3c(C)c4c(C)nnc(C)c4c3C)sc2C)cc1C here?
A: 832 s

Q: With CCOC(=O)c1c(S(=O)(=O)N2CCC(C(=O)NCc3cccc(C)c3)CC2)c(C)n(CC)c1C as the compound, how does the RP-LC retention time read?
A: 975 s

Q: With Cc1ccc(C2=NC3(CCN(C(=O)c4ccsc4)CC3)ON2)cc1 as the compound, how does the RP-LC retention time read?
A: 737 s

Q: Which RP-LC retention time does the source give for Fc1ccc(Cn2cccc2-c2nc(-c3ccncc3)no2)cc1 here?
A: 1100 s

Q: Which RP-LC retention time does the source give for CCCOc1nccnc1NC1CCN(C(=O)c2ccco2)CC1 here?
A: 748 s

Q: Which RP-LC retention time does the source give for CCCN1C(=O)C2CCC(=O)N2c2ccc(C(=O)NCCCN3CCCC3=O)cc21 (stereo not drawn) here?
A: 631 s

Q: For CCC(=O)Nc1cc2c(cc1N1CCC(C)CC1)n(C)c(=O)c(=O)n2C, which RP-LC retention time is on record?
A: 773 s

Q: Which RP-LC retention time does the source give for O=C(NCC1CCCO1)C1CCN(c2cnn(Cc3ccccc3)c(=O)c2)CC1 (stereo not drawn) here?
A: 667 s

Q: For NC(=O)CSc1nnc(N2CCN(C(=O)c3ccccc3[N+](=O)[O-])CC2)s1, which RP-LC retention time is on record?
A: 567 s

Q: For CCC(C)NC(=O)c1ccc(Cn2nc(C)c(S(=O)(=O)N3CCCCC3)c2C)cc1 (stereo not drawn), which RP-LC retention time is on record?
A: 874 s

Q: Which RP-LC retention time does the source give for O=C(CCc1ccc2c(c1)CN(S(=O)(=O)c1cccc3nsnc13)CCO2)NC1CC1 here?
A: 756 s

Q: For Cc1ccccc1NC(=O)C1CC(=O)N(c2n[nH]c3cccc(F)c23)C1 (stereo not drawn), which RP-LC retention time is on record?
A: 733 s

Q: Which RP-LC retention time does the source give for COc1ccc(S(=O)(=O)N2C[C@@H](F)C[C@H]2C(=O)N2CCCCC2)cc1Cl here?
A: 785 s

Q: Which RP-LC retention time does the source give for Cc1ccc2c(c1)N(Cc1cc(F)cc(F)c1)N=C(C(=O)N1CCCC1)S2(=O)=O here?
A: 900 s

Q: With N#C/C(=C\c1ccc(-c2cc(Cl)ccc2Cl)o1)C(=O)Nc1cccc2ncccc12 as the compound, how does the RP-LC retention time read?
A: 1110 s

Q: Which RP-LC retention time does the source give for OC1(c2ccccn2)CCOC2(CCN(Cc3c(F)cccc3Cl)CC2)C1 (stereo not drawn) here?
A: 560 s

Q: For CCn1c(C)c(CN2CCC(C(=O)NCc3ccc(C)cc3)CC2)c2ccccc21, which RP-LC retention time is on record?
A: 733 s

Q: With Cc1ccc(Cn2c(N3CCCC(C(=O)NCc4ccccc4F)C3)nc3ccsc3c2=O)cc1 (stereo not drawn) as the compound, how does the RP-LC retention time read?
A: 981 s

Q: Which RP-LC retention time does the source give for O=C(NC1CCCCC1)c1cccc(Nc2c(-c3ccccc3)nc3cnccn23)c1 here?
A: 838 s

Q: Which RP-LC retention time does the source give for CCNc1nc(C)cc(N2CCN(S(=O)(=O)c3cccc(Cl)c3)CC2)n1 here?
A: 725 s

Q: For COCCN1C(=O)c2ccccc2C(C(=O)NCc2ccccc2Cl)C12CCCC2 (stereo not drawn), which RP-LC retention time is on record?
A: 905 s

Q: For Cn1cc(C2=CCN(S(=O)(=O)c3ccc(C(C)(C)C)cc3)CC2)c2cccnc21, which RP-LC retention time is on record?
A: 1230 s

Q: With COc1cccc(Cc2nc(-c3cccc(-c4ccn[nH]4)c3)no2)c1 as the compound, how does the RP-LC retention time read?
A: 932 s

Q: With CSc1nnc(-c2nn(C)c3c2CN(C(=O)Cc2ccc(C)cc2)CC3)n1C as the compound, how does the RP-LC retention time read?
A: 736 s

Q: Which RP-LC retention time does the source give for Cc1c(S(=O)(=O)N2CCC(Cc3ccccc3)CC2)c(=O)n(C)c(=O)n1C here?
A: 870 s

Q: For O=C(NCc1ccc(N2CCCCC2)cc1)c1ccc2ncnc(N3CCCC3)c2c1, which RP-LC retention time is on record?
A: 561 s

Q: With O=C(Cn1nc(N2CCOCC2)c2ccccc2c1=O)N1CCN(c2ccccc2)CC1 as the compound, how does the RP-LC retention time read?
A: 800 s

Q: Which RP-LC retention time does the source give for CCn1nccc1C(=O)Nc1cnc(N2CCCCCC2)nc1 here?
A: 834 s

Q: For COc1c(C(=O)NCc2ccc3c(c2)OCO3)sc2cc(Cl)ccc12, which RP-LC retention time is on record?
A: 1070 s

Q: For Cc1cc(NC(=O)CSc2nnc(NC(=O)c3snnc3C)s2)no1, which RP-LC retention time is on record?
A: 666 s

Q: Which RP-LC retention time does the source give for Cc1ccc(Nc2cc(C)n3c(=O)n(Cc4cc(=O)n5ccccc5n4)nc3n2)cc1F here?
A: 942 s

Q: With O=C(C1CCCN(c2ncnc3c2nc2n3CCCCC2)C1)N(Cc1ccco1)C1CCCCC1 (stereo not drawn) as the compound, how does the RP-LC retention time read?
A: 1020 s

Q: With CN(C)C(=O)c1ccc2c(c1)N(CC(=O)NCc1ccc(Cl)cc1)C(=O)C1CCCCN21 (stereo not drawn) as the compound, how does the RP-LC retention time read?
A: 792 s

Q: For CCSc1nc2ccc(NS(=O)(=O)c3cccc(F)c3)cc2s1, which RP-LC retention time is on record?
A: 998 s

Q: For Cc1ccc(C)c(CNC(=O)C2CCN(CCc3cn(C)c4ncccc34)CC2)c1, which RP-LC retention time is on record?
A: 639 s

Q: With COc1ccc(OC)c(Nc2nc(NCCO)c3cnn(C)c3n2)c1 as the compound, how does the RP-LC retention time read?
A: 609 s

Q: Which RP-LC retention time does the source give for CC(C)(C)c1ccc(C(=O)NC2CCN(c3cc(-c4ccc(F)cc4)[nH]n3)C2)cc1 (stereo not drawn) here?
A: 899 s

Q: For CCN(CC)S(=O)(=O)c1cccc(-c2nnc(-c3cccc(C)c3)o2)c1, which RP-LC retention time is on record?
A: 1120 s

Q: For COc1ccccc1CNC(=O)C1CCN(C(=O)C2Sc3ccccc3NC2=O)CC1 (stereo not drawn), which RP-LC retention time is on record?
A: 736 s

Q: For COC(=O)c1ccc(CN2CC(=O)N3CCCC3C2=O)cc1 (stereo not drawn), which RP-LC retention time is on record?
A: 616 s

Q: With O=C(Nc1ccc(CN2CCN(c3ccccn3)CC2)cc1)c1ccccc1C(F)(F)F as the compound, how does the RP-LC retention time read?
A: 564 s

Q: Which RP-LC retention time does the source give for CCC(C)n1c(=O)c2ccccc2n(Cc2nc(-c3ccc(SC)cc3)no2)c1=O (stereo not drawn) here?
A: 1260 s

Q: Which RP-LC retention time does the source give for O=C(NCc1cccs1)C(=O)Nc1ccncc1 here?
A: 548 s

Q: With Cc1ccc(NS(=O)(=O)c2ccc([N+](=O)[O-])cc2)c(-c2nc3ccccc3[nH]c2=O)c1 as the compound, how does the RP-LC retention time read?
A: 858 s

Q: Which RP-LC retention time does the source give for Cc1ccc(C)c(N2CCN(C(=O)c3cn4c(n3)CCCC4)CC2)c1 here?
A: 689 s

Q: For COc1ccc(-c2nc(Cn3ccn4nc(-c5ccccc5)cc4c3=O)c(C)o2)cc1, which RP-LC retention time is on record?
A: 1100 s

Q: Which RP-LC retention time does the source give for O=C(COc1ccccc1)N1CC2CN(S(=O)(=O)c3ccc(F)cc3)CC(C1)O2 here?
A: 846 s

Q: With Cc1cc(C)cc(C(=O)N2CCCC(C(=O)NC3CC3)C2)c1 (stereo not drawn) as the compound, how does the RP-LC retention time read?
A: 714 s

Q: Which RP-LC retention time does the source give for Cc1cc(F)ccc1NC(=O)CCNc1cnc2cnccn12 here?
A: 578 s

Q: With COC(=O)c1ccc(NC(=O)C(=O)NCC2CCN(Cc3cccs3)CC2)cc1 as the compound, how does the RP-LC retention time read?
A: 567 s

Q: Which RP-LC retention time does the source give for O=C(Nc1ccc(N2CCN(C3CCCC3)C2=O)nc1)c1ccc(Br)cc1 here?
A: 876 s

Q: Which RP-LC retention time does the source give for O=C(CC1CCCCN1S(=O)(=O)c1ccc(Cl)cc1)NCc1ccco1 (stereo not drawn) here?
A: 852 s

Q: For CCn1ccc2sc(C)c(C(=O)N3CCN(c4ccc(F)cc4)CC3)c2c1=O, which RP-LC retention time is on record?
A: 808 s

Q: Which RP-LC retention time does the source give for CCN(Cc1ccccc1)C(=O)Cn1cnc(C)cc1=O here?
A: 624 s
